Here are results for 7 compounds from patent US10294229B2, “Heteroaryl substituted aminopyridine compounds” (BRISTOL-MYERS SQUIBB COMPANY, priority 2015, dated 2019).

In one series the test system is Caco-2 cells. Briefly: Caco-2 Permeability Assay. Type of series: in vitro ADME. The settings on record: test compound 3 μM. The essentials: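 Bidirectional permeability measured over 2 h at 37° C, compound dosed at 3 μM in the donor compartment (apical for absorptive, basolateral for secretive) with plain buffer as receiver.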
A general note: Caco-2 monolayers are a common model of the intestinal barrier.

In series [1] the test system is Human whole blood stimulated with a TLR2 agonist (lipoteichoic acid), IL-6 levels. Kind of series: IRAK4 Whole Blood Assay. Type of series: cell-based. The settings on record: lipoteichoic acid 10 μg/mL. The essentials:
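IL-6 was quantified by cytometric bead assay in supernatants of human blood (ACD-A) stimulated for 5 h with lipoteichoic acid at 10 μg/mL final. Compound exposure preceded stimulation for 60 min at 37 °C, 5% CO2.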

A further series has as its target IRAK4 (Homo sapiens (Human), UniProt Q9NWZ3). Kind of series: IRAK4 Inhibition Assay. Type of series: biochemical. The settings on record: ATP 500 μM; IRAK4 0.6 nM. The essentials: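 Readout: electrophoretic (LabChip) separation of fluorescent peptide substrate from phosphorylated product after EDTA quench. Reactions ran 60 min at room temperature with 0.6 nM IRAK4, 1.5 μM peptide and 500 μM ATP; inhibition referenced to no-enzyme (100%) and vehicle (0%) controls.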

One may read the EC50 as the concentration needed to bring the measured effect to its halfway point. What is called IC50 is the point on the concentration scale where inhibition reaches its midpoint.

Sequence of IRAK4 (Q9NWZ3 whole entry, species assumed): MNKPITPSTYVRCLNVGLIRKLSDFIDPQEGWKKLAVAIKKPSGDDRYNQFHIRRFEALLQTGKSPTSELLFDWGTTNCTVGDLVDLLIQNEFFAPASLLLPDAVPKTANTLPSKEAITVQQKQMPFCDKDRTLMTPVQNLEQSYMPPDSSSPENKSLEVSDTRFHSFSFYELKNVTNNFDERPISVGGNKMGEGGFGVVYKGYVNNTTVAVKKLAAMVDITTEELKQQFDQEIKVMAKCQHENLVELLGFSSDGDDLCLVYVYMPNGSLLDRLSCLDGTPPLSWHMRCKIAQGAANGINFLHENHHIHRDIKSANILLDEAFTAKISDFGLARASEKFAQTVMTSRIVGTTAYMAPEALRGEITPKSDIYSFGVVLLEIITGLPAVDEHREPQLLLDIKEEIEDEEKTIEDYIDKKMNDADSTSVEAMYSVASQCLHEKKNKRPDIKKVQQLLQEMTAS

As to `CC(C)Nc1cc(-n2ncc3cc(C#N)cnc32)ncc1-c1cc(C2CCCCN2)no1` [Example 413, (S)-1-(4-(isopropylamino)-5-(3-(piperidin-2-yl)isoxazol-5-yl)pyridin-2-yl)-1H-pyrazolo[3,4-b]pyridine-5-carbonitrile], the “Caco-2 Permeability” value with Caco-2 cells stood at 13.9 ×10⁻⁶ cm/s. Moreover, the 50% effective concentration (EC50) in series [1] worked out at 300 nM. Moreover, the IC50 on IRAK4 was 5 nM.

Turning to `CC(C)Nc1cc(-n2ncc3cc(C#N)cnc32)ncc1-c1cc(C2COCCN2)no1` (single isomer, unassigned) [Example 400, Isomer 2, 1-(4-(isopropylamino)-5-(3-(morpholin-3-yl)isoxazol-5-yl)pyridin-2-yl)-1H-pyrazolo[3,4-b]pyridine-5-carbonitrile], in the series with Caco-2 cells (listed as 400, Isomer 2), the “Caco-2 Permeability” value was 53 ×10⁻⁶ cm/s. The concentration for a half-maximal effect (EC50) in series [1] (listed as 400, Isomer 2) is 270 nM. In addition, the IC50 at IRAK4 stood at 6 nM.

In the case of `CC(C)Nc1cc(-n2ncc3cc(C#N)cnc32)ncc1-c1cn([C@@H]2CCN(S(C)(=O)=O)C[C@H]2F)nn1` (single isomer, unassigned) [Example 211, 1-(5-(1-((trans)-3-fluoro-1-(methylsulfonyl)piperidin-4-yl)-1H-1,2,3-triazol-4-yl)-4-(isopropylamino)pyridin-2-yl)-1H-pyrazolo[3,4-b]pyridine-5-carbonitrile], the “Caco-2 Permeability” value in the series with Caco-2 cells is 3.2 ×10⁻⁶ cm/s. The same compound registered an EC50 in series [1] of 290 nM. Moreover, the IC50 on IRAK4 was determined as 2 nM.

As to `CCC(C)(O)Cn1cc(-c2cnc(-n3ncc4cc(C#N)cnc43)cc2NC(C)C)nn1` (single isomer, unassigned) [Example 93, 1-(5-(1-(2-hydroxy-2-methylbutyl)-1H-1,2,3-triazol-4-yl)-4-(isopropylamino)pyridin-2-yl)-1H-pyrazolo[3,4-b]pyridine-5-carbonitrile], the “Caco-2 Permeability” value in the series on Caco-2 cells came to 11.5 ×10⁻⁶ cm/s. The compound also came in with an EC50 in series [1] of 280 nM. In addition, at IRAK4, the IC50 amounted to 10 nM.

As for `CCNc1cc(-n2ncc3cc(C#N)cnc32)ncc1C1=NOC(CCC(C)(C)O)C1` (stereo not drawn) [Example 441, 1-(4-(ethylamino)-5-(5-(3-hydroxy-3-methylbutyl)-4,5-dihydroisoxazol-3-yl)pyridin-2-yl)-1H-pyrazolo[3,4-b]pyridine-5-carbonitrile], the “Caco-2 Permeability” value in the series with Caco-2 cells was found to be 31.7 ×10⁻⁶ cm/s. Also, in series [1], the EC50 was 260 nM. Further, on IRAK4, the IC50 is 2 nM.

On to `CC(=O)N1CCC[C@@H](c2cc(-c3cnc(-n4ncc5cc(C#N)cnc54)cc3NC(C)C)on2)C1` [Example 409, (R)-1-(5-(3-(1-acetylpiperidin-3-yl)isoxazol-5-yl)-4-(isopropylamino)pyridin-2-yl)-1H-pyrazolo[3,4-b]pyridine-5-carbonitrile], for which the “Caco-2 Permeability” value in the series with Caco-2 cells was 30.2 ×10⁻⁶ cm/s. Besides, the EC50 in series [1] came to 470 nM. On IRAK4, the IC50 was found to be 2 nM.

For `CC(C)Nc1cc(-n2ncc3cc(C#N)cnc32)ncc1-c1cn(C2CCOC2)nn1` (stereo not drawn) [Example 215, 1-(4-(isopropylamino)-5-(1-(tetrahydrofuran-3-yl)-1H-1,2,3-triazol-4-yl)pyridin-2-yl)-1H-pyrazolo[3,4-b]pyridine-5-carbonitrile], the “Caco-2 Permeability” value in the series with Caco-2 cells amounted to 10.4 ×10⁻⁶ cm/s. Further, a half-maximal effect in series [1] (EC50) was put at 1310 nM. Further, the IC50 at IRAK4 is 8 nM.
